Assay [1] deals with aTNF-Fab. The assay is described as follows: Affinity of modified SpG-β1# for aTNF-Fab by surface plasmon resonance (Biacore 3000). The conditions noted are these: aTNF-Fab immobilized on CM5 sensor tip, 25° C., pH 7.4, 1:1 binding model. The method, then: A humanized monoclonal IgG product as a raw material was fragmented into a Fab fragment and a Fc fragment using papain, and only the Fab fragment was separated and purified. Specifically, anti-human TNFα monoclonal IgG (generic name: “Infliximab”, product name: “Remicade” manufactured by Mitsubishi Tanabe Pharma Corporation) was dissolved in a buffer for papain treatment (0.1 M AcOH—AcONa, 2 mM EDTA, 1 mM cysteine, pH 5.5), and agarose on which papain was immobilized (“Papain Agarose from papaya latex” manufactured by SIGMA) was added thereto. The mixture was incubated with stirring by a rotator at 37° C. for about 8 hours. The IgG-Fab was purified by recovering as a flow-through fraction in an affinity chromatography using MabSelect SuRe column (GE Healthcare Bioscience) from the reaction mixture which contained both of a Fab fragment and a Fc fragment and which was separated from the agarose on which papain was immobilized. The obtained IgG-Fab solution was subjected to purification by gel filtration chromatography using Superdex 75 10/300 GL column to obtain the solution of IgG-Fab (aTNF-Fab). In the chromatography, the standard buffer was used for equilibration and separation. Similarly to the above-described Example 1, AKTAprime plus system was used in the chromatography for peptide purification.
The affinity of each various modified SpG-β1# obtained in the above Example 1(2) for aTNF-Fab was evaluated using a biosensor Biacore 3000 (GE Healthcare Bioscience) utilizing surface plasmon resonance. In the present Example, the aTNF-Fab obtained in the above Example 2(1) was immobilized on a sensor tip, and each of the peptide was flown on the tip to detect the interaction between the two. The aTNF-Fab was immobilized on a sensor tip CM5 by amine coupling method using N-hydroxysuccinimide (NHS) and N-ethyl-N′-(3-dimethylaminopropyl)carbodiimide hydrochloride (EDC), and ethanolamine was used for blocking. All of the sensor tip and reagents for immobilization were manufactured by GE Healthcare Bioscience. The aTNF-Fab solution was diluted about 10 times using a buffer for immobilization (10 mM AcOH—AcONa, pH 4.5), and the aTNF-Fab was immobilized on the sensor tip in accordance with the protocol attached to the Biacore 3000. In addition, a reference cell as negative control was also prepared by activating another flow cell on the tip with EDC/NHS, immobilizing nothing and blocking with ethanolamine. Peptide solutions of each various modified SpG-β1# having concentrations of 0.01, 0.1, 1 or 10 μM were prepared using a running buffer (20 mM NaH2PO4—Na2HPO4, 150 mM NaCl, 0.005% P-20, pH 7.4). The peptide solution was added to the sensor tip in a flow rate of 40 μL/min for 1 minute. Bonding response curves at the time of addition (association phase, for 1 minute) and after the addition (dissociation phase, for 1 minute) were sequentially obtained at a measurement temperature of 25° C. After each measurement, the cells were washed using about 20 mM NaOH. The bonding response curve obtained by subtracting the bonding response curve of the reference cell was subjected to fitting analysis by a binding model of 1:1 using a software BIA evaluation attached to the system, and affinity constant (KA=kon/koff) to aTNF-Fab was calculated. The result is shown in Table 2 with each binding parameter of GB1#-Cont.1d, which parameter was measured in Comparative Example 2.
An affinity of GB1#-Cont.1d prepared in Comparative example 1 for aTNF-Fab prepared in Example 2(1) was evaluated similarly to the procedure of Example 2(2).
A general note: Surface plasmon resonance follows binding to a sensor surface in real time, without labels.

In assay [2] the test system is aTNF-Fab. The assay is described as follows: Acid dissociation pH by pH linear gradient chromatography on aTNF-Fab-immobilized column. Type of assay: binding. The conditions noted are these: for Dissociation pH (pH at elution peak top): pH linear gradient from pH 5.5 to pH 2.5; for elution position in pH gradient compared with peptide without mutation: Table 3 and FIG. 2. The method, then:
An affinity separation matrix on which aTNF-Fab obtained in the above Example 2 was immobilized was prepared by using a commercially available coupling column for immobilizing a ligand. The column has an amino group as a functional group for coupling.
As a water-insoluble carrier, 1 mL of a commercially available prepacked column (“Hitrap NHS activated HP” manufactured by GE Healthcare Bioscience) was used. The column contains a crosslinked agarose as a base material and an amino group is introduced as an active functional group for immobilizing a protein ligand, and a ligand was immobilized in accordance with the product manual. Specifically, 2 mL of ice-cooled 1 mM HCl was flown at a rate of 1 mL/min repeatedly three times to remove isopropanol in the column.
Then, 1 mL of a 1 mg/mL aTNF-Fab solution in a coupling buffer (0.2 MNaHCO3, 0.5 MNaCl, pH 8.3) was immediately flown at the same rate. The top and bottom of the column were stoppled, and the column was stood still at 25° C. for 30 minutes to immobilize the obtained ligand on the column.
Then, the column was opened, and 3 mL of the coupling buffer was flown at the same rate to recover the unreacted aTNF-Fab. Next, 2 mL of a blocking buffer (0.5 M ethanolamine, 0.5 M NaCl, pH 8.3) was flown repeatedly three times and 2 mL of a washing buffer (0.1 M acetic acid, 0.5 M NaCl, pH 4.0) was flown three times. Each of the above-described procedure to flow the blocking buffer and washing buffer were performed three times one after the other. Finally, 2 mL of a standard buffer (20 mM NaH2PO4—Na2HPO4, 150 mM NaCl, pH 7.4) was flown to complete the preparation of an affinity separation matrix.
By affinity purification chromatography using aTNF-Fab-immobilized column prepared in Example 3(1), an acid dissociation pH at which each modified SpG-β1# prepared in Example 1 (2) was eluted and which corresponded to the peak top of an elution curve of the modified SpG-β1# was measured. Specifically, AKTAprime plus system was used as a chromatography system. The column was equilibrated using ion exchange buffer A (50 mM citric acid-citrate Na, pH 5.5). Into the column, 0.1 mL of a protein solution containing each modified SpG-β1# in the concentration of about 0.1 mg/mL was added, and the protein was eluted with the pH linear gradient from pH 5.5 to pH 2.5. More specifically, the ion exchange buffer A and ion exchange buffer B (50 mM AcOH—AcONa, 1 M NaCl, pH 2.5) were used. […] The pH value which was specified in the experiment as the value corresponding to each elution peak top is shown in Table 3 in addition to the result of Comparative example 3.
An acid dissociation pH of GB1#-Cont.1d prepared in Comparative example 1 was measured using aTNF-Fab-immobilized carrier prepared in Example 3(1) similarly to the procedure of Example 3(2).

For the substance “GB1#-Cont.1d: modified SpG-β1 of SEQ ID NO: 1 with improved binding capability to Fab; peptide before substitution mutation, Comparative example (TTYKLILNGKTLTGYTTAIAADAATAEIVLKQFANDNGIDGEWTYDDATKTFTVTE; Immunoglobulin-binding peptide) [reference compound]”, in the assay with aTNF-Fab [1], the “KA (affinity constant, KA=kon/koff)” value was 2.45 ×10^6 [M^−1]; the koff is 1.70 ×10^−2 [s^−1]; the kon was 4.17 ×10^4 [M^−1s]. Further, the “Dissociation pH (pH at elution peak top)” value in the assay on aTNF-Fab [2] is given as 2.60.
In the case of “GB1#-D36V.1d: modified SpG-β1# single domain with mutation D36V; amino acid SEQ ID NO: 19 (TTYKLILNGKTLTGYTTAIAADAATAEIVLKQFANVNGIDGEWTYDDATKTFTVTE; GB1#-mutant)”, in the assay with aTNF-Fab [1], the “KA (affinity constant, KA=kon/koff)” value was 0.51 ×10^6 [M^−1]; the koff is 6.40 ×10^−2 [s^−1]; the kon is 3.28 ×10^4 [M^−1s]. In the assay with aTNF-Fab [2], the “elution position in pH gradient compared with peptide without mutation” value is on record as “eluted earlier than GB1#-Cont.1d” and the “Dissociation pH (pH at elution peak top)” value is recorded as 3.40.
As for “GB1#-T17A.1d: modified SpG-β1# single domain, SEQ ID NO: 1 with Thr at 17th position substituted by Ala; amino acid SEQ ID NO: 17 (TTYKLILNGKTLTGYTAAIAADAATAEIVLKQFANDNGIDGEWTYDDATKTFTVTE; GB1#-mutant)”, in the assay on aTNF-Fab [1], the “KA (affinity constant, KA=kon/koff)” value was 0.88 ×10^6 [M^−1]; the koff is 2.85 ×10^−2 [s^−1]; the kon is 2.50 ×10^4 [M^−1s]. In the assay with aTNF-Fab [2], the “elution position in pH gradient compared with peptide without mutation” value was “eluted earlier than GB1#-Cont.1d” and the “Dissociation pH (pH at elution peak top)” value is reported as 2.85.
The matching figures for “GB1#-T17V.1d: modified SpG-β1# single domain with mutation T17V; amino acid SEQ ID NO: 18 (TTYKLILNGKTLTGYTVAIAADAATAEIVLKQFANDNGIDGEWTYDDATKTFTVTE; GB1#-mutant)”: 0.57 ×10^6 [M^−1], 3.35 ×10^−2 [s^−1], 1.91 ×10^4 [M^−1s], “eluted earlier than GB1#-Cont.1d” and 3.00.
